The test system of this test is PC12 cells. Particulars: sodium formulated buffer plus 10 μM nicotine, 3H-thymidine incorporation, FIG. 1. In general terms: Dividing cells build labelled thymidine or BrdU into new DNA.

One compound from patent publication US5208145A, “Assay for the presence, in cultured cells, of functional ligand-gated channels, and substances which enhance intracellular lithium accumulation by cultured cells via such channels” (The Salk Institute for Biological Studies, priority 1991, dated 1993) can be followed below.

Method: To subculture, these cells were dislodged from the culture dish by pipetting medium across the culture surface, disassociated by vigorous repeat pipetting, and then distributed to new culture dishes containing fresh media. All cells were maintained at 37° C. in a humidified atmosphere supplemented to 5 percent with CO2.
PC12 cells were distributed to 96 well Costar culture dishes (10^4 cells/well) and the cells were allowed to recover for 24 to 36 hours prior to use. Cells were never allowed to reach confluency. To conduct a lithium-flux experiment, the culture medium was removed and gently replaced with flux-buffer composed of 1.8 mM CaCl2, 25 mM glucose, 10 mM HEPES (pH 7.4), and 115 mM in either sodium chloride or lithium chloride. Each buffer was filter sterilized and supplemented with agonist, antagonist, or both, as described for the experiment being conducted. […] For PC12 cells, culture was then continued as usual for 6 hours before quantitating ^3 H-thymidine incorporation. […]
To determine the incorporation of ^3 H-thymidine into fluxed cells, dishes were frozen at -70°, thawed, and the DNA from each well was collected on glass filters using a Cambridge PhD cell harvester. […] Glass filters were dried, resuspended in Ecolume (ICN) scintillation cocktail, and counted in an LKB Wallace 2010 scintillation counter at 34 percent efficiency.

On to `CN1CCCC1c1cccnc1` (stereo not shown) [nicotine], for which the “effect of the presence of nicotine on cell cycle time of PC12 cells” value was “does not alter the cell cycle time of PC12 cells”.
